From ChEMBL document CHEMBL6134828, “Discovery, synthesis, and biological mechanism evaluation of novel quinoline derivatives as potent NLRP3 inhibitors” (Eur J Med Chem, 2025)

Target: NACHT, LRR and PYD domains-containing protein 3 (Mus musculus, UniProt Q8R4B8)
Assay: Inhibition of NLRP3 in mouse J774.A1 cells assessed as reduction IL-1beta release by ELISA
Type: cell-based

NACHT, LRR and PYD domains-containing protein 3, sequence (Q8R4B8 whole entry, the tested form may be a part): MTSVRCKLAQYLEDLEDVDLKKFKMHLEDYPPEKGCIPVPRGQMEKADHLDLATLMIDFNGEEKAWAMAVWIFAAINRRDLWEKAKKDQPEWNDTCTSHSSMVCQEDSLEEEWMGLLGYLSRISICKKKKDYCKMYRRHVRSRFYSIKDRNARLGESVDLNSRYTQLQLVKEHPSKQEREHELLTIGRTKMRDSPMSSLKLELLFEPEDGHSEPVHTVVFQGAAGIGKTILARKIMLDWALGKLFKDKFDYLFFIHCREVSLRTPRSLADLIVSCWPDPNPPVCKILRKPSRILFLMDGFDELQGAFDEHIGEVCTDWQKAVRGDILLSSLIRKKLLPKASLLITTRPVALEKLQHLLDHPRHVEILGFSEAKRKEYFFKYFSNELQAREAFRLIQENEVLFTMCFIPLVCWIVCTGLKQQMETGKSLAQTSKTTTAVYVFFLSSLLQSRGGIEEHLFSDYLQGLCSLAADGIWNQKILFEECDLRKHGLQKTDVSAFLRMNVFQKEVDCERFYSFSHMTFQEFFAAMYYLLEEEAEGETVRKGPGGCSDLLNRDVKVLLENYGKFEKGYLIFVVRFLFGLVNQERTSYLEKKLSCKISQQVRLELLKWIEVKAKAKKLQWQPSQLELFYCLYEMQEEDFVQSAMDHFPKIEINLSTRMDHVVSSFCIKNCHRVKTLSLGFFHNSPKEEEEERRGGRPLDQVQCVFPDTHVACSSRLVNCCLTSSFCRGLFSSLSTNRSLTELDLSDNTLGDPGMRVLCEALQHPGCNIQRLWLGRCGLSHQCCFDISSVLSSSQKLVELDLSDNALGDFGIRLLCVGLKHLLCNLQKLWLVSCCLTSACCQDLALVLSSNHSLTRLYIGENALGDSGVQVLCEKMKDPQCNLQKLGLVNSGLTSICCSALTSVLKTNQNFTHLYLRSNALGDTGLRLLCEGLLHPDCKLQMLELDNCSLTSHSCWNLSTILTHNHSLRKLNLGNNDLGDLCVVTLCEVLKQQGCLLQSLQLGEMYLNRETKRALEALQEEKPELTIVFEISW

| IC50 [µM] | SMILES |
| --- | --- |
| 0.94 | CC[C@H](NC(=O)c1c(C)c(-c2cccc(F)c2)nc2ccc([N+](=O)[O-])cc12)c1ccccc1 |
| 2.08 | CC[C@@H](NC(=O)c1cc(-c2ccccc2)nc2ccccc12)c1ccccc1 |
| 0.92 | CC[C@H](NC(=O)c1c(C)c(-c2cccc(F)c2)nc2cc(Br)ccc12)c1ccccc1 |
| 13.8 | Cc1ccccc1NC(=O)c1cc(-c2ccccc2)nc2ccccc12 |
| 0.92 | CC[C@H](NC(=O)c1c(C)c(-c2cccc(F)c2)nc2cc(Cl)ccc12)c1ccccc1 |
| 0.72 | CC[C@H](NC(=O)c1c(C)c(-c2cccc(F)c2)nc2c(NC(C)=O)cccc12)c1ccccc1 |
| 3.08 | CSc1ccccc1NC(=O)c1cc(-c2ccccc2)nc2ccccc12 |
| 0.71 | CC[C@H](NC(=O)c1c(C)c(-c2cccc(F)c2)nc2c(Cl)cccc12)c1ccccc1 |
| 85 | CC[C@H](NC(=O)c1cc(C)nc2ccccc12)c1ccccc1 |
| 1.27 | CC[C@H](NC(=O)c1c(C)c(-c2ccccc2)nc2ccccc12)c1ccccc1 [SB-222200] |
| 70.4 | O=C(NCCc1ccccc1)c1cc(-c2ccccc2)nc2ccccc12 |
| 0.81 | CC[C@H](NC(=O)c1c(C)c(-c2cccc(F)c2)nc2ccc(Cl)cc12)c1ccccc1 |
| 1.36 | CC[C@H](NC(=O)c1c(C)c(-c2cccc(F)c2)nc2ccc(F)cc12)c1ccccc1 |
| 0.42 | CC[C@H](NC(=O)c1c(C)c(-c2cccc(F)c2)nc2c(NS(=O)(=O)C3CC3)cccc12)c1ccccc1 |
| 2.07 | O=C(Nc1ccccc1)c1cc(-c2ccccc2)nc2ccccc12 |
| 4.31 | Cc1ccccc1CNC(=O)c1cc(-c2ccccc2)nc2ccccc12 |
| 4.51 | O=C(N[C@H]1CCc2ccccc21)c1cc(-c2ccccc2)nc2ccccc12 |
| 1.06 | CC[C@H](NC(=O)c1c(C)c(-c2cccc(F)c2)nc2c(OC)cccc12)c1ccccc1 |
| 84.7 | CC[C@H](NC(=O)c1cc(Cl)nc2ccccc12)c1ccccc1 |
